Experimental data as given in patent US9856254B2, “Alkoxy substituted imidazoquinolines” (3M INNOVATIVE PROPERTIES COMPANY, priority 2003, dated 2018).

SMILES | melting point
CCCCc1nc2c(N)nc3ccc(OCCC4CCN(C(=O)OC(C)(C)C)CC4)cc3c2n1C [Example 37, tert-Butyl 4-[2-(4-amino-2-butyl-1-methyl-1H-imidazo[4,5-c]quinolin-8-yloxy)ethyl]piperidine-1-carboxylate] | 171.1 to 173.2 °C
CCCCc1nc2c(N)nc3ccc(OCCC4CCNCC4)cc3c2n1C [Example 38, 2-Butyl-1-methyl-8-(2-piperidin-4-ylethoxy)-1H-imidazo[4,5-c]quinolin-4-amine] | 210 to 212 °C
CCCCc1nc2c(N)nc3ccc(OCCC4CCN(C(=O)C(C)C)CC4)cc3c2n1C [Example 39, 1-{4-[2-(4-Amino-2-butyl-1-methyl-1H-imidazo[4,5-c]quinolin-8-yloxy)ethyl]piperidin-1-yl}-2-methylpropan-1-one] | 189.4 to 192.6 °C
CCCCc1nc2c(N)nc3ccc(OCCC4CCN(C(=O)C5CCCC5)CC4)cc3c2n1C [Example 40, 2-Butyl-8-{2-[1-(cyclopentylcarbonyl)piperidin-4-yl]ethoxy}-1-methyl-1H-imidazo[4,5-c]quinolin-4-amine] | 147.2 to 150.1 °C
CCCCc1nc2c(N)nc3ccc(OCCC4CCN(S(C)(=O)=O)CC4)cc3c2n1C [Example 41, 2-Butyl-8-{2-[1-(methanesulfonyl)piperidin-4-yl]ethoxy}-1-methyl-1H-imidazo[4,5-c]quinolin-4-amine] | 198 to 199.5 °C
CCCCc1nc2c(N)nc3ccc(OCCC4CCN(C(=O)N5CCOCC5)CC4)cc3c2n1C [Example 42, 2-Butyl-1-methyl-8-{2-[1-(morpholin-4-ylcarbonyl)piperidin-4-yl]ethoxy}-1H-imidazo[4,5-c]quinolin-4-amine] | 152.8 °C (dec.)
CCCCc1nc2c(N)nc3ccc(OCCNC(=O)CC)cc3c2n1C [Example 43, N-[2-(4-Amino-2-butyl-1-methyl-1H-imidazo[4,5-c]quinolin-8-yloxy)ethyl]propanamide] | 250 to 255 °C (dec.)
Cc1nc2c(N)nc3ccc(OCC(=O)O)cc3c2n1C [Example 44, 2-[(4-Amino-1,2-dimethyl-1H-imidazo[4,5-c]quinolin-8-yl)oxy]acetic acid] | 298 °C (dec.)
CCOCc1nc2c(N)nc3cc(OCCCCCCNS(C)(=O)=O)ccc3c2n1CC(C)(C)NS(C)(=O)=O [Example 45, N-(2-{4-Amino-2-ethoxymethyl-7-[6-(methanesulfonylamino)hexyloxy]-1H-imidazo[4,5-c]quinolin-1-yl}-1,1-dimethylethyl)methanesulfonamide] | 176 to 180 °C
CCOCc1nc2c(N)nc3cc(OCCCCCCNC(C)=O)ccc3c2n1CC(C)(C)NS(C)(=O)=O [Example 46, N-(6-{[4-Amino-2-ethoxymethyl-1-(2-methanesulfonylamino-2-methylpropyl)-1H-imidazo[4,5-c]quinolin-7-yl]oxy}hexyl)acetamide] | 169 to 171 °C
CCCc1nc2c(N)nc3cc(OCCCCCCNS(C)(=O)=O)ccc3c2n1CCCCNS(C)(=O)=O [Example 47, N-(4-{4-Amino-7-[6-(methanesulfonylamino)hexyloxy]-2-propyl-1H-imidazo[4,5-c]quinolin-1-yl}butyl)methanesulfonamide] | 138 to 140 °C
CCCc1nc2c(N)nc3cc(OCCCCCCNC(C)=O)ccc3c2n1CCCCNS(C)(=O)=O [Example 48, N-(6-{4-Amino-1-[4-(methanesulfonylamino)butyl]-2-propyl-1H-imidazo[4,5-c]quinolin-7-yloxy}hexyl)acetamide] | 168 to 172 °C
CCOCc1nc2c(N)nc3cc(OCCCCCCNC(C)=O)ccc3c2n1CC(C)(C)NC(C)=O [Example 50, N-(2-{7-[6-(Acetylamino)hexyloxy]-4-amino-2-ethoxymethyl-1H-imidazo[4,5-c]quinolin-1-yl}-1,1-dimethylethyl)acetamide] | 190 to 192 °C
CCc1nc2c(N)nc3cc(OCC(=O)C(C)(C)C)ccc3c2n1CCOc1ccccc1 [Example 52, 1-[4-Amino-2-ethyl-1-(2-phenoxyethyl)-1H-imidazo[4,5-c]quinolin-7-yloxy]-3,3-dimethylbutan-2-one] | 238 to 239 °C (dec.)
CCc1nc2c(N)nc3cc(OCC(=O)N4CCOCC4)ccc3c2n1CCOc1ccccc1 [Example 53, 2-Ethyl-7-(2-morpholin-4-yl-2-oxoethoxy)-1-(2-phenoxyethyl)-1H-imidazo[4,5-c]quinolin-4-amine] | 208 to 209 °C
CCCc1nc2c(N)nc3cc(OCC4CCCCO4)ccc3c2n1CC(C)C (stereo not drawn) [Example 54, 1-(2-Methylpropyl)-2-propyl-7-(tetrahydropyran-2-ylmethoxy)-1H-imidazo[4,5-c]quinolin-4-amine] | 126 °C (dec.)
CCCc1nc2c(N)nc3cc(OC4CCOC4)ccc3c2n1CC(C)C (stereo not drawn) [Example 55, 1-(2-Methylpropyl)-2-propyl-7-(tetrahydrofuran-3-yloxy)-1H-imidazo[4,5-c]quinolin-4-amine] | 178 to 182 °C
CCCn1c(CCOC)nc2c(N)nc3cc(OC4CCOC4)ccc3c21 (stereo not drawn) [Example 56, 2-(2-Methoxyethyl)-1-propyl-7-(tetrahydrofuran-3-yloxy)-1H-imidazo[4,5-c]quinolin-4-amine] | 192 to 194 °C
CCCn1c(CCOC)nc2c(N)nc3cc(OC(=O)NC(C)C)ccc3c21 [Example 366, 4-Amino-2-(2-methoxyethyl)-1-propyl-1H-imidazo[4,5-c]quinolin-7-yl isopropylcarbamate] | 144 to 146 °C
CCOCc1nc2c(N)nc3cc(OCCCCCCNC(=S)NC(C)C)ccc3c2n1CC(C)(C)NC(C)=O [Example 368, N-(2-{4-Amino-2-(ethoxymethyl)-7-[(6-{[(isopropylamino)carbonothioyl]amino}hexyl)oxy]-1H-imidazo[4,5-c]quinolin-1-yl}-1,1-dimethylethyl)acetamide] | 110 to 120 °C
CCOCc1nc2c(N)nc3cc(OCCCCCCNC(=O)NC(C)C)ccc3c2n1CC(C)(C)NC(=O)NC(C)C [Example 369, N-(2-{4-Amino-2-(ethoxymethyl)-7-[(6-{[(isopropylamino)carbonyl]amino}hexyl)oxy]-1H-imidazo[4,5-c]quinolin-1-yl}-1,1-dimethylethyl)-N′-isopropylurea] | 205 to 209 °C
CCOCc1nc2c(N)nc3cc(OCCCCCCNC(C)=O)ccc3c2n1CC(C)(C)NC(=O)NC(C)C [Example 370, N-(6-{[4-Amino-2-(ethoxymethyl)-1-(2-{[(isopropylamino)carbonyl]amino}-2-methylpropyl)-1H-imidazo[4,5-c]quinolin-7-yl]oxy}hexyl)acetamide] | 90 to 110 °C
CCOCc1nc2c(N)nc3cc(OCCCCCCNS(C)(=O)=O)ccc3c2n1CC(C)(C)NC(=O)NC(C)C [Example 371, N-(6-{[4-Amino-2-(ethoxymethyl)-1-(2-{[(isopropylamino)carbonyl]amino}-2-methylpropyl)-1H-imidazo[4,5-c]quinolin-7-yl]oxy}hexyl)methanesulfonamide] | 190 to 194 °C
CCOCc1nc2c(N)nc3cc(OCCNC(=O)OC(C)(C)C)ccc3c2n1CC1COC(C)(C)O1 (stereo not drawn) [Example 372, tert-Butyl 2-{[4-amino-1-[(2,2-dimethyl-1,3-dioxolan-4-yl)methyl]-2-(ethoxymethyl)-1H-imidazo[4,5-c]quinolin-7-yl]oxy}ethylcarbamate] | 82 to 84 °C
